{"source": "patent US20230181553A1", "about": "“COMPOSITION FOR HAIR IMPROVEMENT” (Dr. Cherry Inc., priority 2020, published 2023)", "key": {"white hair": {"tested_on": "white hair", "test": "Change in white hair (trichogram) after oral pioglitazone", "type": "in vivo, human", "settings": "oral 15 mg once every day for 6 months", "experimental": "As pioglitazone, a 15 mg pioglitazone tablet “NP” was used. Each patient took one tablet containing 15 mg of pioglitazone around 10 o'clock in the morning once every day. Subjects were four patients ([…]). In each of the patients, lines were extended from both outer canthi toward the head, two points on these lines crossing a line extended between the both ears through the vertex were tattooed with an India ink, and a portion around the marked center was photographed under the same conditions. The patient had no white hair in a specific portion at the start, a temporal portion on the line extending between the both ears was tattooed with an Indian ink, and a portion around the marked center was photographed under the same conditions. Pioglitazone was taken continuously for 6 months, and the same test was performed every two months. For trichogram, a portion around the marked center was photographed (Canon Powder Shot […], Tokyo, Japan), and hair within a circle having a diameter of 11 mm (area: 95 mm^2) around the tattooed portion set as a center in an imaging range was photographed in two directions, and the number was visually counted to obtain an average of the two photographs."}, "CD68": {"tested_on": "CD68", "test": "Gene expression in human scalp tissue after pioglitazone treatment (qPCR)", "type": "in vivo", "settings": "whole scalp three times once every two months, before vs 6 months after first treatment", "experimental": "(§1) A human subject was also checked. A suspension of pioglitazone was prepared in the same manner as in Example 2, and the whole amount of the suspension was applied to the head of a human subject. The PG treatment was performed on the whole scalp three times at a frequency of once every two months. A tissue around the test site was collected with a 3 mm punch before the treatment and 2 months after performing the treatment three times (6 months after the first treatment). The collected tissue was halved, and one half was fixed with 10% formalin, and stored under refrigeration. The other half was immersed in RNA Stabilization Solution (RNAlater, Thermo Fisher Scientific, Lithuania), and the resultant was frozen in liquid nitrogen, and stored at -80° C. Thereafter, the gene expression analysis was performed in the same manner as the rat gene expression analysis.\n(§2) A difference (ΔCt), in an expression level of mRNA, between ribosomal protein lateral stalk subunit P0 (Rp1P0) of a housekeeping gene and the target gene (average of Ct obtained from the qPCR reaction of each gene performed three times) was calculated, and in addition, a difference (ΔΔCt) in ΔCt between samples of the subject to be analyzed obtained before and after the treatment and a control (two persons not treated) was calculated. […]"}, "CD163": {"tested_on": "CD163", "test": "Gene expression in human scalp tissue after pioglitazone treatment (qPCR)", "type": "in vivo", "settings": "whole scalp three times once every two months, before vs 6 months after first treatment", "experimental": "as §1, §2"}}}
{"smiles": "CCc1ccc(CCOc2ccc(CC3SC(=O)NC3=O)cc2)nc1", "note": "(centres unmarked) [pioglitazone]", "values": [{"measurement": "decrease in number of white hairs, number before administration assumed 100", "setting": "white hair; n = 3", "value": 23.2, "unit": "%"}, {"measurement": "decrease of white hair, average", "setting": "white hair; n = 3", "value": 12.7, "unit": "hairs/95 mm^2"}, {"measurement": "change in white hair in shaved portion", "setting": "white hair; three patients having white hair before the treatment", "value": "the white hair was decreased"}, {"measurement": "expression of CD68", "setting": "CD68", "value": "found to increase"}, {"measurement": "expression of CD163", "setting": "CD163", "value": "found to increase"}]}
